Data as given in PMC5093939, “Teicoplanin-based antimicrobial therapy in Staphylococcus aureus bone and joint infection: tolerance, efficacy and experience with subcutaneous administration” (BMC Infectious Diseases, 2016).
Where two headings read alike, the source gives them in different places. Marks after values point to notes of the source that are not given here.

Tests used:
[1] = test system: S. aureus isolates; test: Susceptibility of staphylococcal isolates to teicoplanin; type: cell-based, Staphylococcus aureus; conditions: all S. aureus isolates of the 65 episodes (MRSA 16.9 %); exact MIC not available; breakpoints ref 23
[2] = cited from earlier work
Text: However, the incidence of AE was probably been underestimated due to the retrospective nature of our study (memory bias for non-severe AE). Indeed, in the prospective study of LeFrock et al, the rate of AE was 35 %, requiring discontinuation of treatment in 17 % of the cases. […] The retrospective design may result in underestimating non-serious AE such as injection site reactions.

[3] = Teicoplanin-related adverse events (CTCAE) and their determinants; design: species or system human; conditions: in vivo
Text: Teicoplanin-related adverse events (AE) occurring during follow-up were notified and classified according to the Common Terminology Criteria for Adverse Events (CTCAE, National Cancer Institute, 2003). Teicoplanin accountability in the AE occurrence was left to the clinician appreciation, with the help of a pharmacovigilance specialist in doubtful cases.

[4] = test system: Staphylococcus aureus bone and joint infection; test: Outcome (treatment failure) of teicoplanin-treated S. aureus bone and joint infection and its determinants; type: in vivo, human
Text: BJI diagnosis was based upon the existence of clinical and biological evidences of infection, and at least one reliable bacteriological sample positive for S. aureus (i.e., percutaneous joint fluid aspiration, surgical sample, and/or blood culture). BJI were classified according to: i) the existence of orthopedic implant (i.e. joint prosthesis, peripheral or vertebral osteosynthesis); and ii) progression of infection, differentiating acute (≤3 weeks) versus chronic (>3 weeks) infection, calculated from the presumed date of inoculation (i.e., date of device implantation for postoperative orthopaedic device-related infection (ODI), or date of symptom onset for native BJI) up to diagnosis.
Treatment failure was defined as persisting infection under appropriate antimicrobial therapy, relapse after the interruption of antimicrobial therapy, necessity of surgical revision on the account of persisting septic focus ≥5 days after the first intervention, superinfections, and/or fatal outcome if BJI-related.

[5] = ref 12 (LeFrock et al), cited from earlier work
Text: These current difficulties in the field of BJI explain the limited and controversial data available on the efficacy of teicoplanin in staphylococcal BJI. In past studies, treatment success rate ranged from 53 to 91 % [11–14]. The low success rate observed in our study (60 %) may be explained by several factors. First, there is a significant selection bias as patients were recruited in a reference center dedicated to manage complex BJI with a high-risk of failure. In addition, most of past studies included native BJI with a relatively short follow-up (<1 year). Finally, pharmacodynamics par ...

[6] = in vivo
Text: Patients diagnosed with staphylococcal BJI were identified by cross-referencing the prospective maintained databases of the regional referral center for BJI and the bacteriology laboratory, which list exhaustively all strains isolated from osteoarticular samples since 2001. Patients with diabetic foot- and decubitus ulcer-related BJI were excluded, as they require a specific management. If patients presented more than one osteoarticular infected site, they were considered as independent events for cohort description and outcome analysis, but pooled for tolerance and pharmacologic evaluation. For each patient, data were collected from medical records, nursing charts and biological software in an anonymous standardized case report form.
A Cmin >15 mg/L was taken as an acceptable therapeutic target. Patients with a Cmin >25 mg/L were considered as overexposure.
For intravenous (IV) administration, each dose was diluted in 100 mL of isotonic saline solution and administrated over a 30-min period. For subcutaneous (SC) injections, each dose was diluted in 50 mL of isotonic saline solution and delivered by a nurse during a 30- to 60-min gravity infusion using a butterfly disposable needle.
Descriptive statistics were used to estimate the frequencies of the study variables, described as percentages (%) for dichotomous variables, and medians (interquartile range (IQR)) for continuous variables. For the percentage calculation of each variable, the number of missing values was excluded from the denominator. Non-parametric statistical methods were used to compare the study groups (Chi-squared test, Fisher exact test and Mann–Whitney U test), as appropriate. […] Clinically pertinent variables with a p-value <0.15 in the univariate analysis were included in the final multivariate models. A value of p <0.05 was considered as significant. All analyses were performed using SPSS software version 19.0 (SPSS, Chicago, IL).

teicoplanin
Susceptibility of staphylococcal isolates [1]: susceptible
Risk of toxicity with dose increase ([2]; dose increase from 400 to 600 mg/day): not associated with an increased risk of toxicity
Severe local reaction (grade ≥3) ([2]; prospective evaluation of SC teicoplanin in 30 patients, ref 29 (El Samad et al)): no severe local reaction
Number of cutaneous rashes [3]: 5
Number of episodes of headache [3]: 1
Number of pancytopenia [3]: one
OR (95%CI) of teicoplanin-related adverse event: administration route switch [3]: 0.221 (0.023-2.124)
OR (95%CI) of teicoplanin-related adverse event: delay for Cmin >15 mg/L (days) [3]: 1.019 (0.769-1.351)
OR (95%CI) of teicoplanin-related adverse event: initial Cmin (day 3 to 5, mg/L) [3]: 0.818 (0.656-1.020)
OR (95%CI) of teicoplanin-related adverse event: initial Cmin <15 mg/L [3]: 2.037 (0.213-19.494)
OR (95%CI) of teicoplanin-related adverse event: loading dose (mg/kg/12h) [3]: 1.850 (0.001-4228.586)^b
OR (95%CI) of teicoplanin-related adverse event: loading dose given [3]: 0.889 (0.091-8.646)
OR (95%CI) of teicoplanin-related adverse event: maintenance dose (mg/kg/24h) [3]: 5.150 (0.004-6359.356)^b
OR (95%CI) of teicoplanin-related adverse event: number of loading injections [3]: 0.870 (0.559-1.354)
Resolution of AE [3]: Yes
OR (95%CI) of teicoplanin-related adverse event: IV route ([3]; iv): 0.571 (0.093-3.508)
Teicoplanin-related AE ([3]; iv): 4 (8.7 %)
Teicoplanin-related AE ([3]; sc): 2 (14.3 %)
Influence of administration route on outcome ([4]; IV versus SC, treatment failure analysis): did not influence the outcome
Limb amputations ([4]; among iterative surgical procedures, 65 episodes): two
Cmin ([5]; average after 6 days, 6 mg/kg/day after 5 loading doses of 6 mg/kg/12 h): 10000 ng/mL
Cmin ([5]; average from the third day, 12 mg/kg/day after 5 loading doses of 12 mg/kg/12 h): 20000 ng/mL
Patients obtaining Cmin >15 mg/L within the first 2 weeks of treatment [6]: 66.1%
Subcutaneous versus intravenous route: pharmacokinetics and tolerance [6]: no difference
Delay for Cmin >15 mg/L ([6]; iv): 9 (6–13) days
Initial Cmin <15 mg/L ([6]; iv): 29 (74.4 %)
Initial Cmin >25 mg/L ([6]; iv): 0 (0 %)
Overdose (day 1 to 14), Cmin >25 mg/L ([6]; iv): 8 (16.0 %)
Delay for Cmin >15 mg/L ([6]; sc): 7 (4.5–9.5) days
Initial Cmin <15 mg/L ([6]; sc): 7 (70.0 %)
Initial Cmin >25 mg/L ([6]; sc): 0 (0 %)
Overdose (day 1 to 14), Cmin >25 mg/L ([6]; sc): 2 (14.3 %)
